Data on 32 molecules can be found in patent publication US20190071416A1, “COMPOUNDS FOR TREATMENT OF CANCER AND EPIGENETICS” (Agency For Science, Technology and Research, priority 2015, published 2019).

Molecules are shown by their SMILES.

For the experiment, the target named is T1, SMYD3 (Homo sapiens, UniProt Q9H7B4).
T1 sequence (Q9H7B4 1-428): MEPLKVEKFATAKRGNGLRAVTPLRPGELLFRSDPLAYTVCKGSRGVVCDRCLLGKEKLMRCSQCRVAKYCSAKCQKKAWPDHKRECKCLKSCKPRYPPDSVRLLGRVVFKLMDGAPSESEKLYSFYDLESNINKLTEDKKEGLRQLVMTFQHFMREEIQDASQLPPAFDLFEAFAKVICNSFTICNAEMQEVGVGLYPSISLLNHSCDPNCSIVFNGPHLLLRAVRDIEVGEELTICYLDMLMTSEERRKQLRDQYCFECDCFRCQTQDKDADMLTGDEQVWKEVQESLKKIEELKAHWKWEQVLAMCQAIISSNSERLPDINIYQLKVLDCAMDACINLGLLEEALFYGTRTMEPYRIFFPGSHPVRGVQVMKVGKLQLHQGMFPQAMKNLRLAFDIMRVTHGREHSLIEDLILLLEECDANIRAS
Briefly: SMYD3 biochemical assay (MTase-Glo, MAP3K2 peptide substrate). The settings on record: Table 3; MTase assay, MAP3K2 peptide substrate; read-out: IC50. The method, boiled down: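 Methylation of MAP3K2 peptide (10 µM final) with SAM (1.0 µM final) by SMYD3, 30 min at room temperature. SAH formed was enzymatically converted to ATP and detected as luminescence with MTase-Glo reagents; IC50 by non-linear regression.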

As a reminder, the IC50 is the midpoint of a concentration-inhibition curve. Consider `CCCOC(=O)N1CC2CCC(C1)N2C(=O)c1ccc2c(Cl)c3c(nc2c1)CCCC3` [A004, Propyl 8-(9-chloro-5,6,7,8-tetrahydroacridine-3-carbonyl)-3,8-diazabicyclo[3.2.1]octane-3-carboxylate], for which the IC50 stood at 350 nM. With `CCCOC(=O)N1CCN(C(=O)c2ccc3c(Cl)cc(-c4ccc5ocnc5c4)nc3c2)[C@@H](C)C1` [B241, Propyl (S)-4-(2-(benzo[d]oxazol-5-yl)-4-chloroquinoline-7-carbonyl)-3-methylpiperazine-1-carboxylate] the figure was 240 nM; with `CCCOC(=O)N1CCN(C(=O)c2ccc3c(Cl)c4c(nc3c2)CCC(Cc2noc(C)n2)C4)CC1` (centres unmarked) [A089, Propyl 4-(9-chloro-7-((5-methyl-1,2,4-oxadiazol-3-yl)methyl)-5,6,7,8-tetrahydroacridine-3-carbonyl)piperazine-1-carboxylate], 350 nM; with `CCCOC(=O)N1CCN(C(=O)c2ccc3c(Cl)cc(-c4cccc(CN)c4)nc3c2)CC1` [B039, Propyl 4-(2-(3-(aminomethyl)phenyl)-4-chloroquinoline-7-carbonyl)piperazine-1-carboxylate], 91 nM.

On to `CCCOC(=O)N1CCN(C(=O)c2ccc3c(Cl)c(C)c(-c4ccc(Cl)cc4)nc3c2)CC1` [B021, Propyl 4-(4-chloro-2-(4-chlorophenyl)-3-methylquinoline-7-carbonyl)piperazine-1-carboxylate], for which the IC50 was 1300 nM. The same measure for `CCCOC(=O)N1CCN(C(=O)c2ccc3c(Cl)cc(Nc4ccc(OC)cc4)nc3c2)CC1` [B041, Propyl 4-(4-chloro-2-((4-methoxyphenyl)amino)quinoline-7-carbonyl)piperazine-1-carboxylate]: 1200 nM; for `CCCOC(=O)N1CCN(C(=O)c2ccc3c(Cl)cc(-c4cn[nH]c4C(F)(F)F)nc3c2)CC1` [B250, Propyl 4-(4-chloro-2-(5-(trifluoromethyl)-1H-pyrazol-4-yl)quinoline-7-carbonyl)piperazine-1-carboxylate]: 4900 nM.

`CCCOC(=O)N1CCN(C(=O)c2ccc3c(Cl)c4c(nc3c2)CCC(CCN(C)C)C4)CC1` (centres unmarked) [A075, Propyl 4-(9-chloro-7-(2-(dimethylamino)ethyl)-5,6,7,8-tetrahydroacridine-3-carbonyl)piperazine-1-carboxylate]: the 50% inhibitory concentration (IC50) came to 210 nM.

Regarding `CCCOC(=O)N1CCN(C(=O)c2ccc3c(Cl)cc(-c4cccc(N)c4)nc3c2)C[C@H]1C` [B078, Propyl (R)-4-(2-(3-aminophenyl)-4-chloroquinoline-7-carbonyl)-2-methylpiperazine-1-carboxylate], the IC50 was 130 nM. Take `CCCOC(=O)N1CCN(C(=O)c2ccc3c(Cl)cc(-c4ccc5occc5c4)nc3c2)CC1` [B203, Propyl 4-(2-(benzofuran-5-yl)-4-chloroquinoline-7-carbonyl)piperazine-1-carboxylate]: the IC50 came to 460 nM. Take `CCCOC(=O)N1CCN(C(=O)c2ccc3c(Cl)cc(-c4ccc5c(c4)ncn5C)nc3c2)CC1` [B183, Propyl 4-(4-chloro-2-(1-methyl-1H-benzo[d]imidazol-5-yl)quinoline-7-carbonyl)piperazine-1-carboxylate]: the IC50 stood at 120 nM.

For `C[C@@H]1CN(C(=O)c2ccc3c(Cl)cc(-c4ccccc4)nc3c2)CCN1C(=O)c1cn(C2CC2)nn1` [D005, (R)-(4-Chloro-2-phenylquinolin-7-yl)(4-(1-cyclopropyl-1H-1,2,3-triazole-4-carbonyl)-3-methylpiperazin-1-yl)methanone], the 50% inhibitory concentration (IC50) stood at 77 nM.

Regarding `CCCOC(=O)N1CCN(C(=O)c2ccc3c(Cl)cc(-c4cnc5cccnc5c4)nc3c2)C[C@@H]1C` [B188, Propyl (S)-4-(4-chloro-2-(1,5-naphthyridin-3-yl)quinoline-7-carbonyl)-2-methylpiperazine-1-carboxylate], the IC50 amounted to 890 nM. In the case of `CCCOC(=O)N1CCN(C(=O)c2ccc3c(Cl)c4c(nc3c2)CC(c2ccccn2)CC4)CC1` (single isomer, unassigned) [A053 (Ent-2), Propyl (R/S)-4-(9-chloro-6-(pyridin-2-yl)-5,6,7,8-tetrahydroacridine-3-carbonyl)piperazine-1-carboxylate], the IC50 came to 240 nM. With `CCCOC(=O)N1CCN(C(=O)c2ccc3c(Cl)c4c(nc3c2)CCCC4)C(CC)C1` (centres unmarked) [A016, Propyl 4-(9-chloro-5,6,7,8-tetrahydroacridine-3-carbonyl)-3-ethylpiperazine-1-carboxylate] the figure was 640 nM. Take `CC(C)COC(=O)N1CCN(C(=O)c2ccc3c(Cl)cc(-c4ccn(C)c4)nc3c2)CC1` [B246, Isobutyl 4-(4-chloro-2-(1-methyl-1H-pyrrol-3-yl)quinoline-7-carbonyl)piperazine-1-carboxylate]: the IC50 was 270 nM. With `CCCOC(=O)N1CCN(C(=O)c2ccc3c(Cl)cc(-c4ccc(F)c(N)c4)nc3c2)CC1` [B180, Propyl 4-(2-(3-amino-4-fluorophenyl)-4-chloroquinoline-7-carbonyl)piperazine-1-carboxylate] the figure was 250 nM.

In the case of `CCCOC(=O)N1CCN(C(=O)c2ccc3c(Cl)cc(-c4cnn(C)c4)nc3c2)C[C@H]1C` [B215, Propyl (R)-4-(4-chloro-2-(1-methyl-1H-pyrazol-4-yl)quinoline-7-carbonyl)-2-methylpiperazine-1-carboxylate], the concentration for half-maximal inhibition (IC50) was 110 nM. With `CCCOC(=O)N1CCN(C(=O)c2ccc3c(Cl)cc(-c4ccc(NC(C)=O)cc4)nc3c2)C[C@H]1C` [B121, Propyl (R)-4-(2-(4-acetamidophenyl)-4-chloroquinoline-7-carbonyl)-2-methylpiperazine-1-carboxylate] the figure was 55 nM; with `CCCOC(=O)N1CCN(C(=O)c2ccc3c(Cl)cc(C4CC4)nc3c2)C[C@H]1C` [B079, Propyl (R)-4-(4-chloro-2-cyclopropylquinoline-7-carbonyl)-2-methylpiperazine-1-carboxylate], 60 nM. With `CCCOC(=O)N1CCN(C(=O)c2ccc3c(Cl)c4c(nc3c2)CC(CN)CC4)[C@H](C)C1` (stereo partly drawn) [A102, Propyl (3R)-4-(6-(aminomethyl)-9-chloro-5,6,7,8-tetrahydroacridine-3-carbonyl)-3-methylpiperazine-1-carboxylate] the figure was 230 nM; with `CCCOC(=O)N1CCN(C(=O)c2ccc3c(Cl)cc(-c4ccc(C(C)(C)O)c(F)c4)nc3c2)C[C@H]1C` [B269, Propyl (R)-4-(4-chloro-2-(3-fluoro-4-(2-hydroxypropan-2-yl)phenyl)quinoline-7-carbonyl)-2-methylpiperazine-1-carboxylate], 170 nM; with `CCCOC(=O)N1CCN(C(=O)c2ccc3c(Cl)c(C)c(-c4ccc(C)cc4)nc3c2)CC1` [B025, Propyl 4-(4-chloro-3-methyl-2-(p-tolyl)quinoline-7-carbonyl)piperazine-1-carboxylate], 670 nM. With `CCCOC(=O)N1CCN(C(=O)c2ccc3c(Cl)cc(-c4ccc(C(=O)NC)cc4)nc3c2)[C@@H](C)C1` [B190, Propyl (S)-4-(4-chloro-2-(4-(methylcarbamoyl)phenyl)quinoline-7-carbonyl)-3-methylpiperazine-1-carboxylate], the IC50 was found to be 130 nM. The same measure for `CN(C)Cc1cc(-c2cc(Cl)c3ccc(C(=O)N4CCN(C(=O)c5cn(C6CC6)nn5)CC4)cc3n2)ccc1F` [E020, (4-Chloro-2-(3-((dimethylamino)methyl)-4-fluorophenyl)quinolin-7-yl)(4-(1-cyclopropyl-1H-1,2,3-triazole-4-carbonyl)piperazin-1-yl)methanone]: 58 nM; for `CCCCC(=O)N1CCN(C(=O)c2ccc3c(Cl)c4c(nc3c2)CCCC4)CC1` [A003, 1-(4-(9-Chloro-5,6,7,8-tetrahydroacridine-3-carbonyl)piperazin-1-yl)pentan-1-one]: 1520 nM. Turning to `CCCOC(=O)N1CCN(C(=O)c2ccc3c(Cl)c4c(nc3c2)CC(c2ccnc(CN)c2)CC4)CC1` (centres unmarked) [A144, Propyl 4-(6-(2-(aminomethyl)pyridin-4-yl)-9-chloro-5,6,7,8-tetrahydroacridine-3-carbonyl)piperazine-1-carboxylate], the IC50 turned out to be 510 nM. On to `CCCOC(=O)N1CCN(C(=O)c2ccc3c(Cl)cc(Nc4ccccc4)nc3c2)CC1` [B040, Propyl 4-(4-chloro-2-(phenylamino)quinoline-7-carbonyl)piperazine-1-carboxylate], for which the 50% inhibitory concentration (IC50) is 3200 nM.

In the case of `CCCOC(=O)N1C(C)CN(C(=O)c2ccc3c(Cl)c4c(nc3c2)CCCC4)CC1C` (centres unmarked) [A020, Propyl 4-(9-chloro-5,6,7,8-tetrahydroacridine-3-carbonyl)-2,6-dimethylpiperazine-1-carboxylate], the IC50 amounted to 350 nM. As for `CCCOC(=O)N1CCN(C(=O)c2ccc3c(Cl)cc(-c4ccc5[nH]ncc5c4)nc3c2)C[C@@H]1C` [B169, Propyl (S)-4-(4-chloro-2-(1H-indazol-5-yl)quinoline-7-carbonyl)-2-methylpiperazine-1-carboxylate], the half-inhibitory concentration (IC50) turned out to be 150 nM. The same measure for `CCCOC(=O)N1CCN(C(=O)c2ccc3c(Cl)cc(-c4ccn(C)c4)nc3c2)C[C@H]1C` [B268, Propyl (R)-4-(4-chloro-2-(1-methyl-1H-pyrrol-3-yl)quinoline-7-carbonyl)-2-methylpiperazine-1-carboxylate]: 17 nM; for `CCCOC(=O)N1CCN(C(=O)c2ccc3c(Cl)cc(-c4ccc(F)c(C)c4)nc3c2)CC1` [B068, Propyl 4-(4-chloro-2-(4-fluoro-3-methylphenyl)quinoline-7-carbonyl)piperazine-1-carboxylate]: 1300 nM.
